Data on 35 compounds can be found in patent US20260265195A1, “SARM1 MODULATORS, PREPARATIONS, AND USES THEREOF” (SIRONAX LTD, priority 2022, published 2026).

The assay deals with T1, SARM1 (50-724) (Homo sapiens, UniProt Q6SZW1).
T1 construct: Purified SARM1 (50-724) with a final concentration of 2 nM
T1 sequence (Q6SZW1 50-724): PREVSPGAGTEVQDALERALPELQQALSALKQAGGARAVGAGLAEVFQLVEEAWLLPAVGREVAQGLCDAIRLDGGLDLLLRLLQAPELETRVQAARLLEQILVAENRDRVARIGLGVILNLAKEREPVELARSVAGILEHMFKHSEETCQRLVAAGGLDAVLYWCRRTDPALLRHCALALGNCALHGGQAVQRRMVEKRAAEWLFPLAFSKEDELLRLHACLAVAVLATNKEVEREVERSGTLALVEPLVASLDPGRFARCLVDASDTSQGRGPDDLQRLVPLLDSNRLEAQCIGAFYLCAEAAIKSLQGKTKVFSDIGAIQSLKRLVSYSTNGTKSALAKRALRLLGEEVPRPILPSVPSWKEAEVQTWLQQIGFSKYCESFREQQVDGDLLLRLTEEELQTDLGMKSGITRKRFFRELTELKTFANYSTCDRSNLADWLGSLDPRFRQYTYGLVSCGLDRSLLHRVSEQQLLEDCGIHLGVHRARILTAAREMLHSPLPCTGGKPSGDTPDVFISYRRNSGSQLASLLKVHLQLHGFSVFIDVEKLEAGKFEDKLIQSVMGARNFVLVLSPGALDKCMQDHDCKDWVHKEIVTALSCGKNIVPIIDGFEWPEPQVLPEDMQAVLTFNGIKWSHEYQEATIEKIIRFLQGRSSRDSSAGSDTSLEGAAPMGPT
The assay is described as follows: SARM1 (50-724) enzymatic assay (NMN-activated NAD+ hydrolysis, LC-MS/MS readout). The settings on record: purified SARM1 (50-724) 2 nM, 200 μM NMN activator, 100 μM NAD+ substrate, 1 h at room temperature, read-out: IC50 (SARM1 inhibitory activity). Format: biochemical. In a few lines: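 NMN-activated NAD+ hydrolysis: compound pre-incubated 15 min at room temperature with 2 nM SARM1 (50-724) at 1% DMSO in DPBS; 100 μM NAD+ plus 200 μM NMN added and reacted 1 h at RT. Acetonitrile quench, LC-MS/MS readout.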
As for `O=C(c1nc2cc(C(F)(F)F)ccc2[nH]1)N(CC1(CO)COC1)c1cccc(Cl)c1Cl` [Compound 174, N-(2,3-dichlorophenyl)-N-((3-(hydroxymethyl)oxetan-3-yl)methyl)-5-(trifluoromethyl)-1H-benzo[d]imidazole-2-carboxamido], the IC50 was not above 100 nM.

In the case of `Cn1cc(-c2ccc3[nH]c(C(=O)N(CCO)c4cccc(Cl)c4Cl)nc3c2)cn1` [Compound 139, N-(2,3-dichlorophenyl)-N-(2-hydroxyethyl)-5-(1-methyl-1H-pyrazol-4-yl)-1H-benzo[d]imidazole-2-carboxamide], the IC50 lay within 101 to 500 nM.

With `Cc1ccc2[nH]c(C(=O)N(C)C3C[C@@H](C)O[C@@H](C)C3)c(CO)c2c1` (stereo partly drawn) [Compound 42, N-((2R,6S)-2,6-dimethyltetrahydro-2H-pyran-4-yl)-3-(hydroxymethyl)-N,5-dimethyl-1H-indole-2-carboxamide], the IC50 is not below 1000 nM.

As for `O=C(c1nc2cc(-c3ccn[nH]3)ccc2[nH]1)N(CC1COC1)c1cccc(Cl)c1Cl` [Compound 119], the IC50 lay within 101 to 500 nM.

Consider `Cc1c[nH]c(-c2ccc3[nH]c(C(=O)N(CCO)c4cccc(Cl)c4Cl)nc3c2)n1` [Compound 154], for which the IC50 is not below 1000 nM.

For `Cc1ccc(Cl)c(N(C)C(=O)c2nc3cc(C(F)(F)F)ccc3[nH]2)c1Cl` [Compound 152, N-(2,6-dichloro-3-methylphenyl)-N-methyl-5-(trifluoromethyl)-1H-benzo[d]imidazole-2-carboxamide], the IC50 is not above 100 nM.

With `O=C(c1nc2cc(C(F)(F)F)ccc2[nH]1)N(CC1(F)COC1)c1cccc(F)c1Cl` [Compound 186, N-(2-chloro-3-fluorophenyl)-N-((3-fluorooxetan-3-yl)methyl)-5-(trifluoromethyl)-1H-benzo[d]imidazole-2-carboxamide], the IC50 was not above 100 nM.

As to `Cc1ccc2[nH]c(C(=O)N(C)c3cccc(Cl)c3Cl)c(CNc3nccs3)c2c1` [Compound 79, N-(2,3-dichlorophenyl)-N,5-dimethyl-3-((thiazol-2-ylamino)methyl)-1H-indole-2-carboxamide], the IC50 was not above 100 nM.

For the compound `O=C(c1nc2cc(C(F)(F)F)ccc2[nH]1)N(CC1CC(O)C1)c1cccc(F)c1Cl` (centres unmarked) [Compound 194, N-(2-chloro-3-fluorophenyl)-N-((3-hydroxycyclobutyl)methyl)-5-(trifluoromethyl)-1H-benzo[d]imidazole-2-carboxamide], the IC50 was not above 100 nM.

In the case of `COCC1(CN(C(=O)c2nc3cc(C(F)(F)F)ccc3[nH]2)c2cccc(Cl)c2Cl)COC1` [Compound 200], the IC50 is not above 100 nM.

Consider `COc1ccc(Cl)c(N(CC(F)(F)CO)C(=O)c2nc3cc(C(F)(F)F)ccc3[nH]2)n1` [Compound 207, N-(3-chloro-6-methoxypyridin-2-yI)-N-(2,2-difluoro-3-hydroxypropyl)-5-(trifluoromethyl)-1H-benzo[d]imidazole-2-carboxamide], for which the IC50 was in the range of 101 to 500 nM.

Regarding `CC(C)c1c[nH]c(C(=O)N(C)C2CCCC2)n1` [Compound 57, N-cyclopentyl-4-isopropyl-N-methyl-1H-imidazole-2-carboxamide], the IC50 was not below 1000 nM.

Consider `O=C(c1nc2c(Cl)c(-c3ccn[nH]3)ccc2[nH]1)N(CC1COC1)c1cccc(Cl)c1Cl` [Compound 143], for which the IC50 is not below 1000 nM.

On to `Cc1ccc2[nH]c(C(=O)N(C)c3ccccc3C#N)c(CO)c2c1` [Compound 7, N-(2-cyanophenyl)-3-(hydroxymethyl)-N,5-dimethyl-1H-indole-2-carboxamide], for which the IC50 was not below 1000 nM.

Regarding `Cc1ccc2[nH]c(C(=O)N(C)c3ccc(Cl)cc3)c(CO)c2c1` [Compound 25, N-(4-chlorophenyl)-3-(hydroxymethyl)-N,5-dimethyl-1H-indole-2-carboxamide], the IC50 was not below 1000 nM.

In the case of `Cc1ccc2[nH]c(C(=O)N(C)C3CCCCC3)nc2c1` [Compound 47, N-cyclohexyl-N,5-dimethyl-1H-benzo[d]imidazole-2-carboxamide], the IC50 is 101 to 500 nM.

In the case of `Cc1ccc2[nH]c(C(=O)N(C)c3c(F)cccc3F)c(CO)c2c1` [Compound 2, N-(2,6-difluorophenyl)-3-(hydroxymethyl)-N,5-dimethyl-1H-indole-2-carboxamide], the IC50 lay in the range of 501 to 1000 nM.

`Cc1ccc2[nH]c(C(=O)N(CC3COC3)C3CCCC3)nc2c1` [Compound 65, N-cyclopentyl-5-methyl-N-(oxetan-3-ylmethyl)-1H-benzo[d]imidazole-2-carboxamide]: the IC50 is not below 1000 nM.

`O=C(c1nc2cc(C(F)(F)F)ccc2[nH]1)N(CCN1CCOCC1)c1cccc(F)c1Cl` [Compound 214, N-(2-chloro-3-fluorophenyl)-N-(2-morpholinoethyl)-5-(trifluoromethyl)-1H-benzo[d]imidazole-2-carboxamide]: the IC50 is 101 to 500 nM.

For the compound `CC(C)(C)c1ccc2[nH]c(C(=O)N(CC3(F)COC3)c3[nH]c(=O)ccc3Cl)nc2c1` [Compound 221, 5-(tert-butyl)-N-(3-chloro-6-oxo-1,6-dihydropyridin-2-yl)-N-((3-fluorooxetan-3-yl)methyl)-1H-benzo[d]imidazole-2-carboxamide], the IC50 was not above 100 nM.

On to `O=C(c1nc2cc(C(F)(F)F)ccc2[nH]1)N(CC1(F)COC1)c1cccc(Cl)c1Cl` [Compound 135, N-(2,3-dichlorophenyl)-N-((3-fluorooxetan-3-yl)methyl)-5-(trifluoromethyl)-1H-benzo[d]imidazole-2-carboxamido], for which the IC50 is not above 100 nM.

For the compound `Cc1cn[nH]c1-c1ccc2[nH]c(C(=O)N(CC3COC3)c3cccc(Cl)c3Cl)nc2c1` [Compound 124], the IC50 is not below 1000 nM.

`CN(C(=O)c1[nH]c2cc(Cl)cc(Cl)c2c1CO)C1CCCC1` [Compound 31, 4,6-dichloro-N-cyclopentyl-3-(hydroxymethyl)-N-methyl-1H-indole-2-carboxamide]: the half-maximal inhibitory concentration (IC50) is not below 1000 nM.

Regarding `O=C(c1nc2cc(C(F)(F)F)ccc2[nH]1)N(CCO)c1cccc(Cl)c1Cl` [Compound 103, N-(2,3-dichlorophenyl)-(2-hydroxyethyl)-5-(trifluoromethyl)-1H-benzo[d]imidazole-2-carboxamide], the IC50 is not above 100 nM.

`COc1ccccc1N(C)C(=O)c1[nH]c2ccc(C)cc2c1CO` [Compound 13, 3-(hydroxymethyl)-N-(2-methoxyphenyl)-N,5-dimethyl-1H-indole-2-carboxamide]: the IC50 was not below 1000 nM.

For the compound `COCCc1c(C(=O)N(C)C2CCCC2)[nH]c2ccc(C)cc12` [Compound 37, N-cyclopenty1-3-(2-methoxyethyl)-N,5-dimethyl-1H-indole-2-carboxamide], the IC50 was 101 to 500 nM.

As for `O=C1NC(CN(C(=O)c2nc3cc(C(F)(F)F)ccc3[nH]2)c2cccc(F)c2Cl)CO1` (racemic) [Compound 238, N-(2-chloro-3-fluorophenyl)-N-((2-oxooxazolidin-4-yl)methyl)-5-(trifluoromethyl)-1H-benzo[d]imidazole-2-carboxamide], the IC50 was not above 100 nM.

For `Cc1ccc2c(CO)c(C(=O)N(C)C3CCCC3)[nH]c2c1` [Compound 17, N-cyclopentyl-3-(hydroxymethyl)-N,6-dimethyl-1H-indole-2-carboxamide], the IC50 was not below 1000 nM.

In the case of `CN(C(=O)C1Cc2ccccc2N1)C1CCCC1` (centres unmarked) [Compound 55, N-cyclopentyl-N-methylindoline-2-carboxamide], the IC50 is not below 1000 nM.

Turning to `CC(C)(C#N)c1ccc2[nH]c(C(=O)N(CC(F)(F)CO)c3ccc(F)c(F)c3Cl)nc2c1` [Compound 208], the IC50 is not above 100 nM.

`CN(C(=O)c1[nH]c2cc(Br)ccc2c1CO)C1CCCC1` [Compound 40, 6-bromo-N-cyclopentyl-3-(hydroxymethyl)-N-methyl-1H-indole-2-carboxamidc]: the IC50 is not below 1000 nM.

Take `Cc1ccc2[nH]c(C(=O)N(CCO)c3cccc(Cl)c3Cl)nc2c1-c1cc[nH]c(=O)c1` [Compound 164]: the IC50 is 101 to 500 nM.

Take `NC(=O)C(F)(F)CN(C(=O)c1nc2cc(C(F)(F)F)ccc2[nH]1)c1cccc(Cl)c1Cl` [Compound 107, N-(3-amino-2,2-difluoro-3-oxopropyl)-N-(2,3-dichlorophenyl)-5-(trifluoromethyl)-1H-benzo[d]imidazole-2-carboxamide]: the IC50 is not above 100 nM.

With `O=C(c1nc2cc(C(F)(F)F)ccc2[nH]1)N(CC1CC(O)C1)c1cccc(Cl)c1Cl` (centres unmarked) [Compound 177, N-(2,3-dichlorophenyl)-N-((3-hydroxycyclobutyl)methyl)-5-(trifluoromethyl)-1H-benzo[d]imidazole-2-carboxamide], the 50% inhibitory concentration (IC50) was not above 100 nM.

Take `Cc1ccc2[nH]c(C(=O)N(C)C3CCN(C(=O)OC(C)(C)C)CC3)c(CNc3ccccn3)c2c1` [Compound 85, tert-butyl 4-(N,5-dimethyl-3-((pyridin-2-ylamino)methyl)-1H-indole-2-carboxamido)piperidine-1-carboxylate]: the IC50 is not below 1000 nM.
